Test results published in US4216324A, “1-Difluoromethyl-6,7-methylenedioxy-1,4-dihyd ro-4-oxo-3-quinolinecarboxylic acid” (E. I. Du Pont de Nemours and Company, priority 1978, dated 1980).
Values after ≈ are worked out from the molar mass of the structure shown. Like-named read-outs stand apart in the source and are kept apart here.

How the values were obtained:
[1] = General pharmacology screen in mice; conditions: mouse, in vivo, po; for TD50: doses given in mg./kg
Protocol: 17- to 24-hour fasted female white mice, 16-20 g. each, or rats, 70-90 g. each were dosed orally with test drug (or standard) at 0, 4, 12, 36, 108 or 324 mg./kg.
Ataxia--The mouse or rat was placed upright on the bench top facing away from the observer. Motor incoordination manifested by abnormal gait or lack of precision during purposive movements constituted ataxia.
Vertical Bar--The mouse or rat was swung by the tail with head pointing down to a 0.5" diameter (1" diameter for rats), 30.5 cm long vertical rod covered with adhesive tape. Inability to grip the rod with the front paws, sliding or failure to move after being prodded constituted vertical bar loss.
Body Temperature--The rectal temperatures of the mice and rats were taken using a KC-1 thermocouple probe.
Excitement and Irritability--Increased spontaneous motor activity, running and jumping prior to handling were recorded as excitement. Upon handling, jumping, jerking, biting and squeaking were recorded as irritability.
Anorexia--At the end of the 0.5 hour testing period, each mouse was transferred to an individual, clear, Lucite® compartment (13.3 cm×12.7 cm×12.7 cm) with a 0.64 cm×0.64 cm wire mesh floor. Inside each compartment there was a section of a black Lucite® bar [13 cm×1.2 cm×1.2 cm) with ten spot depressions (0.8 cm diameter) each containing 0.05 ml. of 50% sweetened condensed milk. 30 Minutes later the number of milk spots consumed was counted. 5 Mice per drug dose can drink a maximum of 50 spots (2.5 ml. of milk). 15 or fewer spots consumed by 5 mice constituted anorexia.

[2] = General pharmacology screen in rats; conditions: in vivo, rat, doses given in mg./kg; for TD50: po
Staph. aureus = test: In vitro minimum inhibitory concentration (MIC), tube dilution test; format: cell-based; conditions: Staphylococcus aureus; Staph. aureus (08F); brain-heart infusion broth, 20hour incubation at 37° C.; read-out: Minimal Inhibitory Test Conens. (MIC)
Protocol: (§1) A. In vitro: mimimum inhibitory concentration (MIC)
(§2) The compound was tested in a standard bacteriological tube dilution test for MIC for a variety of bacteria. Stock cultures of the bacteria listed in Table 1 were grown in bacterial culture media at 37° C. overnight and diluted in culture tubes to a previously determined concentration proper for the test. The compound was added to result in final concentrations of 10, 2, 0.4 and 0.08 μg/ml. These were incubated for 18 hours at 37° C. and then observed to determine if growth of bacteria had occurred. The lowest concentration of the compound that inhibited bacterial growth in the MIC.
(§3) *brain-heart infusion broth, 20hour incubation at 37° C.

Sal. choleraesuis = test: as above; format: cell-based; conditions: Salmonella enterica, 20 h, read-out: Minimal Inhibitory Test Conens. (MIC)
Protocol: as §1, §2, §3

Bac. subtilis = test: as above; format: cell-based; conditions: Bacillus subtilis; Bac. subtilis (07A); brain-heart infusion broth, 20hour incubation at 37° C.; read-out: Minimal Inhibitory Test Conens. (MIC)
Protocol: as §1, §2, §3

Ser. marcescens = test: as above; format: cell-based; conditions: Serratia marcescens; Ser. marcescens (22); brain-heart infusion broth, 20hour incubation at 37° C.; read-out: Minimal Inhibitory Test Conens. (MIC)
Protocol: as §1, §2, §3

Kleb. aerobacter = test: as above; format: cell-based; conditions: Kleb. aerobacter (20F); brain-heart infusion broth, 20hour incubation at 37° C.; read-out: Minimal Inhibitory Test Conens. (MIC)
Protocol: as §1, §2, §3

Proteus vulgaris = test: as above; format: cell-based; conditions: Proteus vulgaris (14P); brain-heart infusion broth, 20hour incubation at 37° C.; read-out: Minimal Inhibitory Test Conens. (MIC)
Protocol: as §1, §2, §3

Proteus sp. = test: as above; format: cell-based; conditions: brain-heart infusion broth, 20hour incubation at 37° C., read-out: Minimal Inhibitory Test Conens. (MIC)
Protocol: as §1, §2, §3

Sal. typhimurium = test: as above; format: cell-based; conditions: Salmonella enterica, 20 h, brain-heart infusion broth, 20hour incubation at 37° C., read-out: Minimal Inhibitory Test Conens. (MIC)
Protocol: as §1, §2, §3

Sal. gallinarum = test: as above; format: cell-based; conditions: Salmonella enterica, 20 h, brain-heart infusion broth, 20hour incubation at 37° C., read-out: Minimal Inhibitory Test Conens. (MIC)
Protocol: as §1, §2, §3

Aero. cloacae = test: as above; format: cell-based; conditions: Enterobacter cloacae; Aero. cloacae (39A); brain-heart infusion broth, 20hour incubation at 37° C.; read-out: Minimal Inhibitory Test Conens. (MIC)
Protocol: as §1, §2, §3

Shiq. dysenteriae = test: as above; format: cell-based; conditions: 20 h, read-out: Minimal Inhibitory Test Conens. (MIC)
Protocol: as §1, §2, §3

E. coli = test: as above; format: cell-based; conditions: Escherichia coli, 20 h, brain-heart infusion broth, 20hour incubation at 37° C., read-out: Minimal Inhibitory Test Conens. (MIC)
Protocol: as §1, §2, §3

Sal. typhi = test: as above; format: cell-based; conditions: Salmonella enterica, TYPHI, 20 h, brain-heart infusion broth, 20hour incubation at 37° C.
Protocol: as §1, §2, §3

Strep. pyogenes = test: as above; format: cell-based; conditions: Streptococcus pyogenes; Strep. pyogenes (10V); brain-heart infusion broth, 20hour incubation at 37° C.; read-out: Minimal Inhibitory Test Conens. (MIC)
Protocol: as §1, §2, §3

CCn1cc(C(=O)O)c(=O)c2ccc(C)nc21 [Nalidixic Acid, nalidixic acid]
LD50 at 24 h [1]: > 450 mg/kg
TD50 ([1]; ED50 Anoroxia, 15 or fewer milk spots consumed by 5 mice): 180 mg/kg
TD50 ([1]; ED50 Ataxia): 150 mg/kg
TD50 ([1]; ED50 Excitation): > 450 mg/kg
TD50 ([1]; ED50 Hypertherm., rectal temperature): > 450 mg/kg
TD50 ([1]; ED50 Hypotherm., rectal temperature): 187 mg/kg
TD50 ([1]; ED50 Irritability): > 450 mg/kg
TD50 ([1]; ED50 Vert. Bar, vertical bar loss): 187 mg/kg
LD50 at 24 h ([2]; oral, read-out: ED50 24-Hour Mort.): > 324 mg/kg
TD50 ([2]; read-out: ED50 Ataxia): 187 mg/kg
TD50 ([2]; read-out: ED50 Excitation): > 324 mg/kg
TD50 ([2]; read-out: ED50 Irritability): > 324 mg/kg
TD50 ([2]; rectal temperature, read-out: ED50 Hypertherm.): > 324 mg/kg
TD50 ([2]; rectal temperature, read-out: ED50 Hypotherm.): > 324 mg/kg
TD50 ([2]; vertical bar loss, read-out: ED50 Vert. Bar): 360 mg/kg
MIC (Staph. aureus): 2 µg/mL (≈ 8.61 µM)
MIC (Sal. choleraesuis): 2 µg/mL (≈ 8.61 µM)
MIC (Bac. subtilis): 0.4 µg/mL (≈ 1.72 µM)
MIC (Ser. marcescens): 2 µg/mL (≈ 8.61 µM)
MIC (Kleb. aerobacter): > 10 µg/mL
MIC (Proteus vulgaris): > 10 µg/mL
MIC (Proteus sp.): 2 µg/mL (≈ 8.61 µM)
MIC (Sal. typhimurium; Sal. typhimurium (03A)): 2 µg/mL (≈ 8.61 µM)
MIC (Sal. typhimurium; Sal. typhimurium (03C)): 2 µg/mL (≈ 8.61 µM)
MIC (Sal. typhimurium; Sal. typhimurium (03K)): 2 µg/mL (≈ 8.61 µM)
MIC (Sal. gallinarum; Sal. gallinarum (04C)): > 10 µg/mL
MIC (Sal. gallinarum; Sal. gallinarum (04D)): 10 µg/mL (≈ 43.1 µM)
MIC (Aero. cloacae): 2 µg/mL (≈ 8.61 µM)
MIC (Shiq. dysenteriae): > 10 µg/mL
MIC (E. coli; E. coli (06-2B)): > 10 µg/mL
MIC (E. coli; E. coli (06-2F)): 2 µg/mL (≈ 8.61 µM)
MIC (E. coli; E. coli (06-2L)): > 10 µg/mL
MIC (E. coli; E. coli (06-2M)): 2 µg/mL (≈ 8.61 µM)
MIC (E. coli; E. coli (06C)): > 10 µg/mL
MIC (E. coli; E. coli (06I)): > 10 µg/mL
MIC (E. coli; E. coli (06J)): 2 µg/mL (≈ 8.61 µM)
MIC (E. coli; E. coli (06K)): 10 µg/mL (≈ 43.1 µM)
MIC (E. coli; E. coli (06L)): 10 µg/mL (≈ 43.1 µM)
MIC (E. coli; E. coli (06M)): 10 µg/mL (≈ 43.1 µM)
MIC (E. coli; E. coli (06S)): 10 µg/mL (≈ 43.1 µM)
MIC (E. coli; E. coli (06V)): 2 µg/mL (≈ 8.61 µM)
MIC (E. coli; E. coli (06X)): 10 µg/mL (≈ 43.1 µM)
MIC (E. coli; E.coli (06-2D)): 10 µg/mL (≈ 43.1 µM)
MIC (Sal. typhi; read-out: Minimal Inhibitory Test Conens. (MIC), Sal. typhi (02A)): 10 µg/mL (≈ 43.1 µM)
MIC (Sal. typhi; read-out: Minimal Inhibitory Test Conens. (MIC), Sal. typhi (02B)): 2 µg/mL (≈ 8.61 µM)
MIC (Strep. pyogenes): 10 µg/mL (≈ 43.1 µM)
